The source of these data is ChEMBL document CHEMBL1125240, “Synthesis and biological activity of 5,11-methylenetetrahydro-5- deazahomofolic acid” (J Med Chem, 1991).

The target of assay [1] is T1, Trifunctional purine biosynthetic protein adenosine-3 (Homo sapiens, UniProt P22102).
T1 sequence (P22102 whole entry): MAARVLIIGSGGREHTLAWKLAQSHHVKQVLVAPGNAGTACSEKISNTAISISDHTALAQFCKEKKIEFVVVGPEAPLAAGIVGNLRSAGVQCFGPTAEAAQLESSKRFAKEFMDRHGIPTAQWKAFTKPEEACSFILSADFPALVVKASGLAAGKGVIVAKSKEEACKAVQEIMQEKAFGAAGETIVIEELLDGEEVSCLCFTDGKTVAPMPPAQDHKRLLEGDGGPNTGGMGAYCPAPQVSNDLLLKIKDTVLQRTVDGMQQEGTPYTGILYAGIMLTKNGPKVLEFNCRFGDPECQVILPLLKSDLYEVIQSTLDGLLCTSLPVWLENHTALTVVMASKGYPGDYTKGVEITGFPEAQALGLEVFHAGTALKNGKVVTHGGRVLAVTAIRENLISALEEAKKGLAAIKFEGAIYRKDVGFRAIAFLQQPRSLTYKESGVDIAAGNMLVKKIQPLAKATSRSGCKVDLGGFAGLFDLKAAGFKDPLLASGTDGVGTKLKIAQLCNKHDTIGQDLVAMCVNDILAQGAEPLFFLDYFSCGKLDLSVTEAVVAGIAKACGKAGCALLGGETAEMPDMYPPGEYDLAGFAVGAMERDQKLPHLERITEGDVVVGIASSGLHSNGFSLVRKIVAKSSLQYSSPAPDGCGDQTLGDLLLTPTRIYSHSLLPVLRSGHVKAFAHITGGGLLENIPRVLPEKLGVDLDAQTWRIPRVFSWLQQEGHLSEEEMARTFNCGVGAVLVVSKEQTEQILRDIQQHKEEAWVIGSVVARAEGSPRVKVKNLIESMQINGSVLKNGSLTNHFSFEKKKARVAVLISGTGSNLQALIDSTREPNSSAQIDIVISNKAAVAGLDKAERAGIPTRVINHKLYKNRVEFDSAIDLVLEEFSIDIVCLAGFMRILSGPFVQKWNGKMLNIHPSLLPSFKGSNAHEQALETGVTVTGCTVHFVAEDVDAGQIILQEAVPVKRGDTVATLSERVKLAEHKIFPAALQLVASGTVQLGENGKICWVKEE
Briefly: Compound was evaluated for the ability to inhibit Glycinamide ribonucleotide formyltransferase from Manca cells. The class given is cell-based.

The test system of assay [2] is Manca. The assay can be described thus: Compound was evaluated for the ability to inhibit growth of Manca human lymphoma cells. The class given is functional, cell-based.
Assay [3] addresses Thymidylate synthase (Homo sapiens, UniProt P04818). The assay can be described thus: Compound was evaluated for the ability to inhibit thymidylate synthase from Manca cells. It counts as cell-based.
In assay [4] the target is T2, Thymidylate synthase (Lactobacillus casei, UniProt P00469).
T2 sequence (P00469 whole entry): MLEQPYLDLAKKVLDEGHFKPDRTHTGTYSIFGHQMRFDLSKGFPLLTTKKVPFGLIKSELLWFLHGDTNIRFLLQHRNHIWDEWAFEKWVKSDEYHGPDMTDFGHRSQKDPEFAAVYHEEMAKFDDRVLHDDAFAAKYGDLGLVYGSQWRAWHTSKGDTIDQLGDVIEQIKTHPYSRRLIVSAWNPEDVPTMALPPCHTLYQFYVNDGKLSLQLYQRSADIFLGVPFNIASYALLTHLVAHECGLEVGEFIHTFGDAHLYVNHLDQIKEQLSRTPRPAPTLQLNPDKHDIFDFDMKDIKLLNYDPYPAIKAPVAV
The assay can be described thus: Compound was evaluated for the ability to inhibit thymidylate synthase from Lactobacillus casei cells. Details: species or system Lacticaseibacillus casei.

Sequence of Thymidylate synthase (Homo sapiens, UniProt P04818) (P04818 whole entry): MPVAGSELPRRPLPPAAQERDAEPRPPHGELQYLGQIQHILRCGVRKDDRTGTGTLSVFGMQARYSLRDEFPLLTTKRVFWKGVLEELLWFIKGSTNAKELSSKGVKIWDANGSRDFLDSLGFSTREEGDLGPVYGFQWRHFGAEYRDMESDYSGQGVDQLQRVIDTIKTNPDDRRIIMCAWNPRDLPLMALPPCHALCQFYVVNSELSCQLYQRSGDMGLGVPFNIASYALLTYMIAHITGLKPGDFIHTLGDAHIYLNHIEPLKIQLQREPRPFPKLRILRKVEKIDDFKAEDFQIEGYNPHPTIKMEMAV

Regarding `Nc1nc2c(c(=O)[nH]1)C1CN(c3ccc(C(=O)NC(CCC(=O)O)C(=O)O)cc3)CCC1CN2` (centres undefined), the IC50 in assay [1] was more than 20 µM; in assay [2], more than 14 µM; in assay [3], more than 200 µM; in assay [4], more than 100 µM.

In general, IC50 refers to the concentration that inhibits the measured activity by half.
